Results published in patent publication US8153589B2, “JNK3 as a target for the treatment of angiogenesis-related diseases” (The University of North Carolina at Chapel Hill, priority 2009, dated 2012).

What was measured:
Assay type in all cases: cell-based, bovine
[1] = tested on: eNOS; experiment: eNOS Ser 1177 phosphorylation, Western blot in BAECs
Experimental: (§1) Cells were harvested in lysis buffer (1% Triton X-100, 50 mM Tris, pH 7.4, 150 mM NaCl, 1 mM Na3VO4 and 0.1% protease inhibitor tablet; Roche) and clarified by centrifugation at 16,000 g. Equal amounts of proteins were incubated with a specific antibody overnight at 4° C. with gentle rotation. Protein A/G Plus-agarose beads (Santa Cruz Biotechnology, Santa Cruz, Calif.) were used to pull down the antibody complexes. Afterward, beads were washed with lysis buffer, and immune complexes were separated by SDS-PAGE. Total cell lysates were separated by SDS-PAGE and transferred to nitrocellulose membranes.
The degree of SDF-1α-induced activation of eNOS was examined in bovine aortic endothelial cells (BAECs) by monitoring phosphorylation of the Ser 1177 activation site in eNOS. […] Phosphorylation of Ser 1177 peaked at 5 minutes after SDF-1α stimulation (FIG. 1A), and increased in a dose-dependent fashion over a SDF-1α concentration range of 50 ng/ml to 500 ng/ml (FIG. 1B), which approximates physiologically relevant SDF-1α concentrations.

[2] = tested on: BAECs; experiment: Scratch wound healing assay; settings: 50 ng/ml SDF-1alpha, no inhibitor
Experimental: For detection of cell migration, a wound healing assay was performed as previously described (40). BAECs were grown on 35 mm wells, the monolayer was scratched with a sterile disposable rubber policeman and the edge labeled with a traced line. After injury, the cells were gently washed with normal media without serum. EC migration from the edge of the injured monolayer was quantified by measuring the area between the wound edges before and the recovered area after injury using light microscopy (Eclipse TS100, 4× objective, Nikon) and the computer program ImageJ.
To determine whether eNOS activation is required for SDF-1α-mediated endothelial cell migration, we performed scratch-wound healing and Boyden chamber migration assays in the presence of the NOS-specific inhibitor L-NMMA (19). Confluent BAECs were pretreated for one hour with 1 mM or 5 mM L-NMMA or vehicle prior to each assay. […] Similarly, cell migration in Boyden chambers was induced by SDF-1α (from 8±3 to 86±5 cells per field), but this increase in migration was inhibited by the pre-incubation of BAECs with L-NMMA (FIG. 1D). The involvement of eNOS in SDF-1α-induced endothelial cell migration was confirmed by treatment of cells with siRNAs specific for eNOS. […]

[3] = tested on: BAECs; experiment: Boyden chamber migration assay
Experimental: Boyden chamber assays were performed as previously described (40, 41) using a 48-well chamber apparatus (NeuroProbe, Cabin John, Md.). The lower chambers of the apparatus were filled with DMEM with or without SDF-1alpha and then covered with the collagen-coated filter and the upper chambers. Cells pretreated with or without the indicated inhibitors were then added to the upper chambers. After incubating for 6 h at 37° C., cells present on the lower surface were fixed, stained and identified with the 40× objective lens on a Nikon Eclipse TS 100 inverted microscope.
To determine whether eNOS activation is required for SDF-1α-mediated endothelial cell migration, we performed scratch-wound healing and Boyden chamber migration assays in the presence of the NOS-specific inhibitor L-NMMA (19). Confluent BAECs were pretreated for one hour with 1 mM or 5 mM L-NMMA or vehicle prior to each assay. […] Endothelial cells were transfected with 1 of 3 different bovine eNOS-specific siRNAs, or mixture of all three, and 72 hours later cell lysates were examined by western blot analysis for levels of eNOS protein.

[4] = tested on: JNK3; experiment: JNK activation (phospho-JNK Western blot) in BAECs; settings: BAECs
Experimental: as §1
Mitogen-activated protein kinases (MAPKs), including ERK1/2 and p38, have been reported to enhance angiogenesis (20, 21). However, the role of JNK in angiogenesis remains controversial, with studies showing both positive and negative outcomes of JNK activation. In order to determine which MAPKs are involved in SDF-1α-induced endothelial cell migration, we screened the activities and expression levels of ERK1/2, p38 and JNK following treatment of BAECs with SDF-1α. […] SDF-1α activated both JNK and ERK1/2 in a dose-dependent manner (FIG. 2B). […] Protein and mRNA for all three JNK isoforms, JNK1, JNK2 and JNK3, can be found in BAECs (FIGS. 5, A&B). In order to determine which JNK protein(s) was activated by SDF-1α in these cells we used a previously described assay (22). Exogenous JNK1, JNK2 and JNK3 proteins containing Flag or GFP-epitopes were transiently expressed in BAECs and their activities were determined via western blotting with a phospho-JNK antibody following SDF-1α treatment. […] To confirm the finding that JNK3 is the only JNK entity activated by SDF-1α, we transfected cells with siRNAs for each of the JNK proteins and then tested the effect of each siRNA for the ability to suppress SDF-1α-induced JNK activation. […] Because JNK3 was the only SDF-1α-activated JNK in endothelial cells in our studies (FIG. 2C & FIG. 5, C), we consider the phospho-JNK signals in western blots with anti-phospho-JNK antibody as the signals for activated JNK3.

[5] = tested on: ERK1/2; experiment: ERK1/2 activation, Western blot in BAECs; settings: BAECs, SDF-1α 50 ng/ml
Experimental: as §1
(§2) Mitogen-activated protein kinases (MAPKs), including ERK1/2 and p38, have been reported to enhance angiogenesis (20, 21). However, the role of JNK in angiogenesis remains controversial, with studies showing both positive and negative outcomes of JNK activation. In order to determine which MAPKs are involved in SDF-1α-induced endothelial cell migration, we screened the activities and expression levels of ERK1/2, p38 and JNK following treatment of BAECs with SDF-1α. […] SDF-1α activated both JNK and ERK1/2 in a dose-dependent manner (FIG. 2B). […] Exogenous JNK1, JNK2 and JNK3 proteins containing Flag or GFP-epitopes were transiently expressed in BAECs and their activities were determined via western blotting with a phospho-JNK antibody following SDF-1α treatment. […]

[6] = tested on: p38; experiment: p38 activation, Western blot in BAECs; settings: SDF-1α treatment
Experimental: as §1, §2

[7] = tested on: BAECs; experiment: In vitro Matrigel angiogenesis (tube formation) assay; settings: 50 ng/ml SDF-1α, control siRNA cells
Experimental: Endothelial cell tube formation was analyzed with the Matrigel-based tube formation assay (40, 41). Chilled 24-well plates were coated with growth factor-reduced Matrigel (Becton Dickinson, San Jose, Calif.) that was polymerized at 37° C. for 30 min. BAECs were transfected with siRNA constructs with the Amaxa Nucleofector electroporation reagent. Three days later, cells were trypsinized, and plated at equal numbers into each Matrigel-coated well. After 18 hours of incubation in the absence or presence of SDF-1alpha, the formation of tubes was photographed (Eclipse, 10× objective, TS100Nikon). Images were quantified with ImageJ.
Endothelial cell migration is a critical step for tube formation during angiogenesis. To test the importance of JNK3 in highly ordered cell assembly processes, we examined the effect of JNK knockdown with siRNAs on the formation of capillary-like tubes in Matrigel. BAECs were transfected with JNK1 siRNA, JNK2 siRNA, JNK3 siRNA or control siRNA. After 72 hours, cells were plated on Matrigel in medium containing 50 ng/ml SDF-1α.

SDF-1α
time of peak phosphorylation of eNOS Ser 1177 after stimulation ([1]; 50 ng/ml SDF-1alpha): 5 min
eNOS phosphorylation (Ser 1177) ([1]; 50 ng/ml to 500 ng/ml SDF-1α): time- and dose-dependent manner
BAEC migration towards the wounded area [2]: 56.0±12.0%
cell migration in Boyden chambers ([3]; 50 ng/ml SDF-1alpha, no inhibitor (FIG. 1D)): 86±5 cells per field
endothelial cell migration ([3]; control-transfected BAECs, 50 ng/ml SDF-1alpha (FIG. 4F)): 125±9 cells/field
phosphorylation of exogenous Flag/GFP-tagged JNK1, JNK2, JNK3 ([4]; 50 ng/ml SDF-1alpha for 5 minutes): only phosphorylation of JNK3 (but not JNK1 or JNK2) was increased
JNK activity ([4]; SDF-1α 50 ng/ml): potently induced
ERK1/2 activity [5]: potently induced
p38 activation [6]: not significantly activated
tube length [7]: 605±106 μm
